Data set [1] can be described thus: Phase 1 hepatic impairment study of relacorilant (moderate hepatic impairment vs matched controls). Type of data set: in vivo, human. As to the method: A phase 1, open-label, multiple-dose study included 18 subjects (18-70 years). Of these subjects, 9 subjects had moderate hepatic impairment (Child—Pugh Class B) and 9 subjects were controls with normal hepatic function matched for age, sex, and body weight.
Relacorilant was administered at a dose of 300 mg/day for 10 days under fasted conditions. Blood samples for pharmacokinetic (PK) analysis were collected before dosing on Day 1 and from before dosing on Day 10 through 144 hours after the last dose of study drug (Day 16).
Subjects with moderate hepatic impairment were well matched for age, sex, and body weight Mean total Child-Pugh score of 7.9 (range: 7-9) in subjects with moderate hepatic impairment. Liver function was assessed by measurements of alanine aminotransferase (ALT) and aspartate aminotransferase (AST) levels.

Another data set addresses CYP2C9 (Homo sapiens, UniProt P11712). The conditions noted are these: on administration; cited from earlier work.
The conditions of data set [2]: Cushing's syndrome patients; cited from earlier work.
The target in a further data set is CYP3A4 (Homo sapiens, UniProt P08684). Conditions: in vivo; cited from earlier work.
Chain of CYP3A4 (P08684 whole entry): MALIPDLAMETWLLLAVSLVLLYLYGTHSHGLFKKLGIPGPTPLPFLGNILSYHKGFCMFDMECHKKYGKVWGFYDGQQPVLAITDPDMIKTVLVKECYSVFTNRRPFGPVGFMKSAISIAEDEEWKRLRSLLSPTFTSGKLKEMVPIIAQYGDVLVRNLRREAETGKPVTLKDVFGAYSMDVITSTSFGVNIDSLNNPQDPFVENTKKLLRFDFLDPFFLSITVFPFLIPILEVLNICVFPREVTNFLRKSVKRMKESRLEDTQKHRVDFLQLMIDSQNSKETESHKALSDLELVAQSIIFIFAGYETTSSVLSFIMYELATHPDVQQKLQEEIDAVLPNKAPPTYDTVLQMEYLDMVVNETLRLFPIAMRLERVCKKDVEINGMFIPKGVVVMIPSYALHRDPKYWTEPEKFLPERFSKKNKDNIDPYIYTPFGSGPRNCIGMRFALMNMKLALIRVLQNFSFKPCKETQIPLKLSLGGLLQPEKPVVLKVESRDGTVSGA
The next data set has as its target T1, CYP2C8 (Homo sapiens, UniProt P10632).
T1 sequence (P10632 1-490): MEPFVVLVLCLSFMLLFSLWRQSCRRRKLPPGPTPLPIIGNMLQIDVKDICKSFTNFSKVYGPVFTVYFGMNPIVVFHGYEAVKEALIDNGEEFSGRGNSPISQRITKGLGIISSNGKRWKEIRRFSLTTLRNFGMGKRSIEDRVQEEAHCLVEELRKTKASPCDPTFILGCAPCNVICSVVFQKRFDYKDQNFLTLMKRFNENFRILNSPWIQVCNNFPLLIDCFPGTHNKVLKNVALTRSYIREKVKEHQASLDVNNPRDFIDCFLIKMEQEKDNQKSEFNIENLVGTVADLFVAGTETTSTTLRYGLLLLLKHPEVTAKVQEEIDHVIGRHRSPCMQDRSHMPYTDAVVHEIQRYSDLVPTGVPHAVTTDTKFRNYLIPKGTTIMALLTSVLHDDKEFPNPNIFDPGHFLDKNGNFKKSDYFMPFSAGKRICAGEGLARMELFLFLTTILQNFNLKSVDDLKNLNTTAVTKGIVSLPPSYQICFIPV
Conditions: on administration; cited from earlier work.

Data set [3] concerns the target T2, glucocorticoid receptor type 2 (GR) (Homo sapiens, UniProt P04150).
T2 sequence (P04150 1-777): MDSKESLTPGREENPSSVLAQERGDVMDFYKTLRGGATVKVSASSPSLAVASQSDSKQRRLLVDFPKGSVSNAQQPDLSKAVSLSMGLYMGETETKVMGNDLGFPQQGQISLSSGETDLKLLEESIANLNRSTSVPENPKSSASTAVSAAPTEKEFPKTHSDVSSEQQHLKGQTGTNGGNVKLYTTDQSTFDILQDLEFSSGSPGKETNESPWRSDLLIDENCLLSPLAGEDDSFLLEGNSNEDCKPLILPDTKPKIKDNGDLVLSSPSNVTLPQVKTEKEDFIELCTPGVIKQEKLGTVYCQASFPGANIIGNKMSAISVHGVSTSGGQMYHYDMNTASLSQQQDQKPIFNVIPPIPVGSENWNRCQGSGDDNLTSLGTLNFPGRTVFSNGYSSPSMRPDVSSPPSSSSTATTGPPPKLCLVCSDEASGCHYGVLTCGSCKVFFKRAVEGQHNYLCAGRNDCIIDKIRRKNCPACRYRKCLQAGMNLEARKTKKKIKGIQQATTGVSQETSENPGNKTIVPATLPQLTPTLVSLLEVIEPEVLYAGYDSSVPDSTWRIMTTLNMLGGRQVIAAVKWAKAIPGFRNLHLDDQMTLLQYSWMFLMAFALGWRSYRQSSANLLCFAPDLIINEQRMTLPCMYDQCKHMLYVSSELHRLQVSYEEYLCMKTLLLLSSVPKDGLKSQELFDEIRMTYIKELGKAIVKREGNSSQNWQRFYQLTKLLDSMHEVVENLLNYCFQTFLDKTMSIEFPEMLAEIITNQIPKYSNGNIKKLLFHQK
Conditions: cited from earlier work.

The conditions of data set [4]: via CYP3A and carbonyl reductase; cited from earlier work.
Data set [5] is described as follows: Phase 2 Cushing's syndrome study, low-dose and high-dose groups. Type of data set: in vivo, human. As to the method: A multicenter, open-label study with two dose groups enrolled 34 patients (aged 18-80 years) with endogenous Cushing's Syndrome (CS) and impaired glucose tolerance or type 2 diabetes mellitus and/or uncontrolled or untreated hypertension. Patients with elevated AST or ALT (elevated defined as greater than 3-times the ULN) were excluded. These patients were treated with relacorilant at two dosage levels. The dosages for each group were escalated in 50-mg dose increments every 4 weeks. The low dose group received relacorilant beginning at a dose of 100 mg/day, escalating to dosages of 200 mg/day during the duration of the 12-week treatment. The high-dose group received relacorilant beginning at a dose of 250 mg/day, escalating to a dosage of 400 mg/day during the duration of the 16-week treatment. The P-values shown are the P-values for the mean change from baseline to last observation calculated from the Wilcoxon signed-rank test. The Efficacy Population includes all patients treated with relacorilant who had postbaseline data.

Another data set deals with T3, progesterone receptor (Homo sapiens, UniProt P06401).
T3 sequence (P06401 1-933): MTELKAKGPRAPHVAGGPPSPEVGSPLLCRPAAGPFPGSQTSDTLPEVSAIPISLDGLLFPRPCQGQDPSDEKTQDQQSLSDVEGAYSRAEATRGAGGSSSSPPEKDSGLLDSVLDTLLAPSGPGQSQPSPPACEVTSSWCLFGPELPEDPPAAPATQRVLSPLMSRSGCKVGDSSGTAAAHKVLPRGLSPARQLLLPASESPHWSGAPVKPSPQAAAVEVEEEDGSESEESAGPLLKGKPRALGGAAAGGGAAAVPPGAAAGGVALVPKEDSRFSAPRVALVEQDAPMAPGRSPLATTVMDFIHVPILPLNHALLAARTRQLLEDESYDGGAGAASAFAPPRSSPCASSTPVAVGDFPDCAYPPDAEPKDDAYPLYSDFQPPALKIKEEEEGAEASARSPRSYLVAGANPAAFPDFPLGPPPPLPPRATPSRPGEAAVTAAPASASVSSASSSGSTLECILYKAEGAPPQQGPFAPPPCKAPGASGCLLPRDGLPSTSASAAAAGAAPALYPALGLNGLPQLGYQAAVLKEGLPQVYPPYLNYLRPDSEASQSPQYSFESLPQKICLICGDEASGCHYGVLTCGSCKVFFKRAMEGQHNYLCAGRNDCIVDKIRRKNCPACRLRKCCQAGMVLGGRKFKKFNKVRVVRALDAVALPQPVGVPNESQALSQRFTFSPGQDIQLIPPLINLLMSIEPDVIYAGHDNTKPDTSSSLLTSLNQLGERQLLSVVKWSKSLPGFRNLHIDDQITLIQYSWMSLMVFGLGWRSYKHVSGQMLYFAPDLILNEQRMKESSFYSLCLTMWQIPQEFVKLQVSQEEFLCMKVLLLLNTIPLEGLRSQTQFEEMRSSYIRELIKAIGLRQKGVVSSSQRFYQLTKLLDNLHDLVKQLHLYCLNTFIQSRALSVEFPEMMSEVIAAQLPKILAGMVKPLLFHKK
The conditions noted are these: cited from earlier work.

Chain of CYP2C9 (P11712 whole entry): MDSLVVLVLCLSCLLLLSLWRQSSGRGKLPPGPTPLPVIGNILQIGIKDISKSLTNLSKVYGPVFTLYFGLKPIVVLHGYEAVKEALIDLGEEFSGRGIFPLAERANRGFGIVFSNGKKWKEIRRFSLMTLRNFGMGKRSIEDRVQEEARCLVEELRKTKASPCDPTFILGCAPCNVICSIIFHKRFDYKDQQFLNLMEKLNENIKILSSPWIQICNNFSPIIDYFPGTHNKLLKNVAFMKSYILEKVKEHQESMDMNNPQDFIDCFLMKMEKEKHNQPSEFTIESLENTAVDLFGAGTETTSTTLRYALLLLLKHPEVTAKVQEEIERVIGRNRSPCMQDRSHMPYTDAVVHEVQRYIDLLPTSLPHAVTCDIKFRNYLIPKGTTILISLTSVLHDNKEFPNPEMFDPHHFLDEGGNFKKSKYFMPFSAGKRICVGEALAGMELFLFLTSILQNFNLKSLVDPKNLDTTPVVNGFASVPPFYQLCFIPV

Take `Cn1cc(S(=O)(=O)N2CCC3=Cc4c(cnn4-c4ccc(F)cc4)C[C@]3(C(=O)c3cc(C(F)(F)F)ccn3)C2)cn1` [relacorilant, (R)-(1-(4-fluorophenyl)-6-((1-methyl-1H-pyrazol-4-yl)sulfonyl)-4,4a,5,6,7,8-hexahydro-1H-pyrazolo[3,4-g]isoquinolin-4a-yl)(4-(trifluoromethyl)pyridin-2-yl)methanone]: in [1] (300 mg/day for 10 days, fasted), the “pharmacokinetic difference, moderate hepatic impairment vs matched controls” value is “No apparent difference”. In addition, the “relacorilant exposures (area under the curve and maximum plasma concentration) across both groups” value in data set [1] (moderate hepatic impairment vs matched controls) is given as “largely overlapped”. The “change in mean liver function tests (ALT, AST)” value in data set [1] (patients with moderate hepatic impairment, 300 mg/day for 10 days, fasted, baseline to Day 16) is “Reductions”. Besides, on CYP2C9, the CYP2C9 inhibition result is “does not result in clinically significant inhibition”. Besides, in [2], the “antiprogesterone effects or drug-induced hypokalemia” value was “without antiprogesterone effects or drug-induced hypokalemia”; the “effect on hypertension and hyperglycemia” value is on record as “clinically meaningful improvement”; the “other cortisol-excess-related comorbidities (hypercoagulopathy, cognitive function, mood, quality of life)” value is recorded as “Improvement”. Besides, the CYP3A4 inhibition entry on CYP3A4 was “strong CYP3A4 inhibitor”. In addition, the CYP2C8 inhibition entry on CYP2C8 was “does not result in clinically significant inhibition”. Besides, in data set [3], the “binding to GR” value was “binds”. Further, in data set [4], the route of elimination entry is recorded as “primarily hepatic”. In [5] (Cushing's syndrome patients), the “normalization of ALT in patients with abnormal ALT values at baseline” value is recorded as 2 of 4. The “change in LFTs, baseline to last observation” value in data set [5] (both dose groups (100-200 mg/day 12 weeks; 250-400 mg/day 16 weeks)) was “Reductions”. In addition, in data set [5] (high-dose group 250-400 mg/day, 16 weeks), the “change in LFTs, high-dose group compared with low-dose group” value is given as “greater reductions”. Moreover, the “affinity for the progesterone receptor” value on progesterone receptor is “lacks affinity”.
